Measured values from patent publication EP4640676A1, “CRYSTAL FORM OF FLUORINE-SUBSTITUTED INDAZOLE COMPOUND AND USE THEREOF” (Sunshine Lake Pharma Co., Ltd., priority 2022, dated 2024).
One block for each compound: values may come before it.

Experiments:
[1] = Crystal form transformation (polymorphic transition); type: physicochemical; details: for crystal form transformation: in solvents such as ethanol
[2] = High-temperature stability test; type: physicochemical; details: for Outward: colour
Procedure: (§1) • (1) High-Temperature Test: Place an appropriate amount of the test sample in a flat weighing bottle, spreading it into a thin layer ≤5 mm thick. Store at 60°C ± 2°C for 30 days. Collect samples at 0, 5, 10, and 30 days for analysis according to the key stability test items. Observe any color changes and determine purity by HPLC. • (2) High-Humidity Test: Place an appropriate amount of the test sample from one batch in a flat weighing bottle, spreading it into a thin layer ≤5 mm thick. Store at 25°C and 90% ± 5% relative humidity (RH) for 30 days. Collect samples at 0, 5, 10, and 30 days for analysis according to the key stability test items. Observe any color changes and determine purity by HPLC. • (3) Light-Exposure Test: Expose the sample to visible light (4500 lx ± 500 lx) and UV light (energy ≥0.7 W·h/m^2) for 30 days. Collect samples at 0, 5, 10, 15, and 30 days for analysis according to the key stability test items. Observe any color changes and determine purity by HPLC. • (4) Accelerated Test: Package an appropriate amount of the test sample from one batch in single-layer PE with aluminum foil. Store at 40°C ± 2°C / 75% ± 5% RH for […]. Collect samples at 0, 1, 2, 3, and 6 months for analysis according to the key stability test items. Observe any color changes and determine purity by HPLC.

[3] = Accelerated stability test; type: physicochemical; details: 40°C ± 2°C / 75% ± 5% RH; for Outward: colour
Procedure: as §1

[4] = High-humidity stability test; type: physicochemical; details: 25°C, 90% ± 5% RH, 30 day; for Outward: colour
Procedure: as §1

Solubility test (HPLC) = type: physicochemical; details: figures not given
Procedure: The solubility of the present invention was determined using an Agilent 1200 High Performance Liquid Chromatograph DAD/VWD detector with an Agilent XDB-C18 model (4.6 x 50 mm, 5 µm). Detection wavelength of 266 nm, flow rate of 1.0 mL/min, the column temperature of 35 °C, mobile phase A: acetonitrile - 0.01 M ammonium acetate = 10:90 (V: V) analysis methods: acetonitrile - mobile phase A= 70:30 (V: V), running time: 10 minutes.

[5] = Hygroscopicity test by dynamic vapor sorption (DVS); type: physicochemical
Procedure: The hygroscopicity of the present invention was determined using a DVS INT-Std dynamic vapor and gas sorption analyzer from Surface Measurement Systems Ltd. (UK) with the following parameters: humidity test range: 0%-95%, gas flow: 200 mL/min, temperature: 25°C, test points: one measurement point every 5% humidity increase.
An appropriate amount of the test sample was taken, and its hygroscopicity was measured using a dynamic vapor sorption (DVS) instrument. The classification criteria for hygroscopicity characteristics and moisture absorption weight gain (as per Appendix 9103 "Guidelines for Hygroscopicity Testing of Drugs" from the Chinese Pharmacopoeia 2020 Edition, test conditions: 25°C ± 1°C, 80% ± 2% relative humidity (RH)) are described in Table 3 below: Table 3 The description of the hygroscopicity feature and the definition of the hygroscopicity gain

[6] = Accelerated stability test; type: physicochemical; details: 40°C ± 2°C / 75% ± 5% RH, 6 month
[7] = Pharmacokinetics test, oral capsules; type: in vivo; details: male Beagle dogs, 5 mg/kg, figures not given
Procedure: Male Beagle dogs of 8-12 kg were divided into 3 groups, 3 dogs in each group, and capsules containing test samples were orally administered at a dose of 5 mg/kg, and blood was collected at time points of 0.25, 0.5, 1.0, 2.0, 4.0, 6.0, 8.0 and 24 h. Standard curve was plotted based on concentrations of the samples in a suitable range, the concentration of the test sample in the plasma sample was measured and quantified by AB SCIEX API4000-type LC-MS / MS at MRM mode. Pharmacokinetic parameters were calculated according to drug concentration -time curve using a noncompartmental method by WinNonLin 6.3 software.

[8] = Light-exposure stability test; type: physicochemical; details: 30 day; for Outward: colour
Procedure: as §1

[9] = 0 day, common start value of the high-temperature, high-humidity and light-exposure tests, HPLC
[10] = 0 day, common start value of the three tests
[11] = High-Temperature, 60°C ± 2°C, 30 day

crystal form transformation [1]: transform into Crystal form II
SMILES: COC(=O)Nc1c(N)nc(-c2nn(Cc3ccccc3F)c3c(F)cccc23)nc1N [Crystal Form I, methyl (4,6-diamino-2-(7-fluoro-1-(2-fluorobenzyl)-1H-indazol-3-yl)pyrimidin-5-yl)carbamate]

Purity (%) [2, 9]: 99.97%
Outward [2, 10]: Off-white
Outward [2, 11]: Off-white
stability ([2]; conclusion over various storage conditions (high-temperature, high-humidity, light-exposure and accelerated tests)): excellent stability
remaining at 720 h ([2]; solid storage, High-Temperature, 60°C ± 2°C, 30 day, HPLC, read-out: Purity (%)): 99.9%
Purity (%) ([3]; 0 day): 99.96%
Outward ([3]; 0 day): Off-white
Outward ([3]; 1 month): Off-white
Outward ([3]; 2 month): Off-white
Outward ([3]; 3 month): Off-white
remaining at 720 h ([3]; solid storage, 75% rh, 1 month, read-out: Purity (%)): 100%
remaining at 1440 h ([3]; solid storage, 75% rh, 2 month, read-out: Purity (%)): 100%
remaining at 2160 h ([3]; solid storage, 75% rh, 3 month, read-out: Purity (%)): 100%
Outward [4]: Off-white
remaining at 720 h ([4]; solid storage, 90% rh, HPLC, read-out: Purity (%)): 100%
solubility (Solubility test (HPLC)): good solubility
Weight Gain at 60% RH (%) ([5]; DVS, 25°C, 60% RH): 0.02%
Weight Gain at 80% RH (%) ([5]; DVS, 25°C, 80% RH): 0.05%
Weight Gain at 95% RH (%) ([5]; DVS, 25°C, 95% RH): 0.18%
the hygroscopicity feature ([5]; classification per Chinese Pharmacopoeia 2020, 25°C ± 1°C, 80% ± 2% RH): no or negligible hygroscopicity
deliquescence ([5]; under high humidity conditions): not prone to deliquescence
Outward ([6]; colour): Off-white
remaining at 4320 h ([6]; solid storage, 75% rh, read-out: Purity (%)): 99.9%
pharmacokinetic properties [7]: excellent pharmacokinetic properties
stability of the crystal structure ([1]; in contrast to the other crystal forms): less prone to polymorphic transition
Outward [8]: Pale yellow
remaining at 720 h ([8]; solid storage, light exposure, visible light 4500 lx ± 500 lx and UV light, HPLC, read-out: Purity (%)): 99.9%
SMILES: COC(=O)Nc1c(N)nc(-c2nn(Cc3ccccc3F)c3c(F)cccc23)nc1N [Crystal Form II, methyl (4,6-diamino-2-(7-fluoro-1-(2-fluorobenzyl)-1H-indazol-3-yl)pyrimidin-5-yl)carbamate]

Purity (%) [2, 9]: 99.52%
Outward [2, 10]: Off-white
Purity (%) ([2]; High-Temperature, 60°C ± 2°C, 30 day, HPLC, 43200 min): 99.47%
Outward [2, 11]: Off-white
Purity (%) ([4]; HPLC, 43200 min): 99.51%
Outward [4]: Off-white
crystal form transformation [1]: transform into Crystal form II
polymorphic transition ([1]; under high temperature conditions): undergoes polymorphic transition
Outward [8]: Pale yellow
Purity (%) ([8]; visible light 4500 lx ± 500 lx and UV light, HPLC, 43200 min): 99.36%
SMILES: COC(=O)Nc1c(N)nc(-c2nn(Cc3ccccc3F)c3c(F)cccc23)nc1N [Crystal Form V, methyl (4,6-diamino-2-(7-fluoro-1-(2-fluorobenzyl)-1H-indazol-3-yl)pyrimidin-5-yl)carbamate]
